Converted amounts (≈) assume the structure as drawn. “And” between values parts separate entries of the source, which are not always exact repeats. Equal values may be shown once. Marks after values point to notes of the source that are not given here.
How the values were obtained:
[1] = test system: parainfluenza HA-1; assay: CPE-inhibition (microscopic) assay, Protocol A2; type: cell-based, parainfluenza virus; settings: HEp-2, cell Hep2 (cell blank for 3-(4′-bromophenyl) coumarin)
[2] = Drug cytotoxicity, Protocol A2 (microscopic); settings: human, Hep2 cell monolayers
[3] = test system: HIV ROJO; assay: Anti-HIV assay in fresh human PBL (RT activity), Protocol D1; settings: Human immunodeficiency virus 1, PBMC
[4] = in vitro; settings: human, TC50
[5] = in vitro; settings: dog
[6] = test system: Influenza A; assay: CPE-inhibition (microscopic) assay, Protocol A2; type: cell-based; settings: Influenza A virus, MDCK
[7] = test system: rhinovirus 14; assay: Anti-picornaviral virus yield assay, Protocol B; type: cell-based, Rhinovirus type 14; settings: Enterovirus
[8] = test system: T, gondii RH; assay: In-vitro anti Toxoplasma gondii activity in HFF, Protocol C; type: cell-based
Experimental: Protocol C—In-vitro testing of anti Toxoplasma gondii activity of Cirsiliol and Naringin. The compounds were tested in an in vitro cell culture assay utilizing human fibroblasts (HFF line) as the host cell. RH strain Toxoplasma gondii that has been transfected with β-galactosidase as a marker for quantitative detection of parasite number (RH Bgal), was used as the challenge organism. The compounds ere dissolved, and then diluted in cell culture medium at least 100 fold for the assays. Controls containing the maximum concentration of solvent used in the assay were run with each test. The active drugs were added and the monolayers were infected immediately at the beginning of each test. Extracellular T. gondii were removed by rinsing the monolayer, and infected host cells remained in contact with the cells for the entire test period. Each test was terminated when at least four parasite doublings could be visually identified in the control monolayers, and parasite numbers were quantitated by standard colorimetric assay for bet galactosidase activity with optical density at 550 nm as the readout. The optical density in this assay has a direct and linear correlation with parasite numbers over a 5-log parasite concentration. Toxicity in the host cells was determined by inspection for cytopathic effects and visual evaluation of cell growth.

[9] = test system: toxoplasma; assay: Inhibition of parasite levels in vivo, mice infected with 20 toxoplasma cysts; parameters: species or system Mice (C57BL/6)
Source text: Inhibition of parasite levels in vivo. Mice (C57BL/6) were infected with 20 toxoplasma cysts and then treated with cirsiliol or control vehicle (0.1% DMSO). After the treatment, the level of toxoplasma cysts in the brain was reduced (about 1.5-2 fold) by the cirsiliol treatment compared to the control.

[10] = Drug cytotoxicity by XTT in PBL, Protocol D1; settings: human, TC50, PBMC, printed on each HIV isolate line
[11] = test system: MDBK cells; assay: Cytotoxicity in MDBK cultures (BVDV test); settings: at 10.000 μg/mL, no toxicity at lower concentrations
Experimental: As a comparison, similar tests were conducted using ribavirin.

[12] = Drug solubility observed in the BVDV test; settings: BVDV test in MDBK cultures; naringin solvent EtOH
[13] = test system: Bovine Viral Diarrhea Virus; assay: Plaque formation by Bovine Viral Diarrhea Virus in MDBK cultures; type: cell-based, bovine viral diarrhea virus (BVDV); settings: for % Reduction: plaques; for Number of plaques: Tests 1-3, control 68
Experimental: HCV in vitro assays. No well-accepted model exists for HCV and new compounds for use in the treatment of HCV are frequently tested for activity against bovine viral diarrhea virus (BVDV), a virus which is related to HCV.
A representative compound according to the present invention, naringin (i.e., 7-neohesperidoside, 5, 4′ dihydroxyflavanone) was tested for anti-BVDV activity in MDBK cells.

[14] = test system: HIV Merck 1002-60; assay: Anti-HIV assay in fresh human PBL (RT activity), Protocol D1; settings: Human immunodeficiency virus 1, PBMC
[15] = test system: HIV clade F BR/92/021; assay: as above; settings: Human immunodeficiency virus 1, PBMC
[16] = test system: HIV Merck 1026-60; assay: as above; settings: Human immunodeficiency virus 1, PBMC
[17] = Drug cytotoxicity by XTT in monocyte-macrophages, Protocol D2; type: cell-based; settings: human; macrophage; Protocol D2; read-out: TC50
Experimental: Protocol D2—Assay in fresh human monocyte-macrophages. […] The cells are placed in a 96-well microtiter plate at 37° C. for 2 hours. Non-adherent cells are removed by vigorously washing six times. […] The cultures are carefully monitored for confluency during this incubation period. Infection of the cells is performed with monocytotropic HIV-1 isolates. […] Monocytemacrophage monolayers are infected at a multiplicity of infection (“MOI”) of 0.1.
(§1) At 2 days post-infection, the medium is decanted and the cultures washed twice with complete medium in order to remove excess virus. Fresh medium alone or medium containing the appropriate concentration of drug is added and incubation continued for an additional five days. XTT staining for cytotoxicity and HIV p24 ELISA assays for production of p24 core antigen are performed on Day 7 post infection. This is performed according the ELISA kit assay manufacturers recommendations. Control curves are generated in each assay to accurately quantitate the amount of capsid protein in each sample. Data is obtained by spectrophotometric analysis at 450 nm using a Molecular Devices Vmax plate reader. P24 concentrations are calculated form the optical density values by use of the Molecular Device software package Soft Max.

[18] = test system: HIV clade E THA/93/073; assay: Anti-HIV assay in fresh human PBL (RT activity), Protocol D1; settings: Human immunodeficiency virus 1, PBMC
[19] = test system: HIV Merck 52-52; assay: as above; settings: Human immunodeficiency virus 1, PBMC
[20] = test system: HIV Merck 1064-52; assay: as above; settings: Human immunodeficiency virus 1, PBMC
[21] = test system: HIV clade A UG/93/037; assay: as above; settings: Human immunodeficiency virus 1, PBMC
[22] = test system: HIV Ba-L; assay: Anti-HIV assay in fresh human monocyte-macrophages (p24 ELISA), Protocol D2; type: cell-based; settings: Human immunodeficiency virus 1, BAL, Macrophage, Protocol D2
Experimental: Protocol D2—Assay in fresh human monocyte-macrophages. […] The cells are placed in a 96-well microtiter plate at 37° C. for 2 hours. Non-adherent cells are removed by vigorously washing six times. […] The cultures are carefully monitored for confluency during this incubation period. Infection of the cells is performed with monocytotropic HIV-1 isolates. High titer pools of each of these viruses are harvested from infected cultures of peripheral blood adherent cells and frozen in 1.0 ml aliquots at −80° C. Monocytemacrophage monolayers are infected at a multiplicity of infection (“MOI”) of 0.1.
as §1
Most of the values were based on average values that were obtained from duplicate or triplicate assay wells.

[23] = test system: HIV clade B BR/92/014; assay: Anti-HIV assay in fresh human PBL (RT activity), Protocol D1; settings: Human immunodeficiency virus 1, PBMC
[24] = test system: HIV Merck 144-44; assay: as above; settings: Human immunodeficiency virus 1, PBMC
[25] = test system: HIV Merck 1022-48; assay: as above; type: cell-based; settings: Human immunodeficiency virus 1, PBMC

Work on O=c1oc2ccccc2cc1-c1ccc(Br)cc1 [3-(4′-Bromophenyl) coumarin, 3-(4′-bromophenyl) coumarin] yielded an IC50 [1] of 6.3 µM and a CC50 [2] of 100 µM.
Work on O=c1cc(-c2ccccc2)oc2ccc(O)cc12 [6-Hydroxyflavone, 6-hydroxyflavone] yielded an IC50 [3] of 41.8 µM and a CC50 [4] of 53.9 µM.
In the case of COc1cc2oc(-c3ccc(O)c(O)c3)cc(=O)c2c(O)c1OC [Cirsiliol, 6,7′-dimethoxy-5,3′,4′-trihydroxyflavone], the CC50 [5] is reported as under 6.3 µM, the IC50 [6] is reported as over 200 µM and the IC50 [1] is reported as 7.8 µM. For the same compound, the CC50 [2] was 12.5 µM, the IC50 [7] was about 3 µM and the IC50 [8] was about 2 µM. For the same compound, the “survival of toxoplasmosis infection” value ([9]; 8 mice, 21-day post infection follow up, 4 of 8 vehicle control mice died by 15 days) was “all 8 cirsiliol treated mice survived” and the “level of toxoplasma cysts in the brain reduced compared to the control” value ([9]; C57BL/6 mice, 20 toxoplasma cysts, control vehicle 0.1% DMSO) was 1.5-2 fold.
In the case of O=c1cc(-c2ccccc2)oc2ccccc12 [Flavone, flavone], the IC50 [3] is reported as 86.6 µM and the CC50 [4] is reported as 173 µM.
COc1ccc([C@@H]2CC(=O)c3c(O)cc(O)cc3O2)cc1O [Hesperetin, hesperetin] showed an IC50 [3] of 134 µM and a CC50 [10] of 190 µM.
With NC(=O)c1ncn([C@@H]2O[C@H](CO)[C@@H](O)[C@H]2O)n1 [Ribavirin, ribavirin, reference compound] the “toxicity to the cells” value [11] was “*Partial toxicity to the cells was observed with no toxicity at lower concentrations”, the drug solubility observation [12] was “Comment: Positive control drug. Drug was soluble in medium” and the ID50 ([13]; BVDV plaque formation in MDBK, table footnote, unit from the table's concentration head) was 1.24 µg/mL (≈ 5.08 µM). The “% Reduction” value ([13]; ribavirin 0.320 μg/mL) was 14.10%, the “% Reduction” value ([13]; ribavirin 1.000 μg/mL) was 38.99% and the “% Reduction” value ([13]; ribavirin 3.200 μg/mL) was 93.65%. For the same compound, the “% Reduction” value ([13]; ribavirin 10.000 μg/mL, partial toxicity to the cells) was 100.00* %, the “Number of plaques” value ([13]; ribavirin 0.320 μg/mL) was 55 and 62 and 59 and the “Number of plaques” value ([13]; ribavirin 1.000 μg/mL) was 36 and 42 and 47. For the same compound, the “Number of plaques” value ([13]; ribavirin 3.200 μg/mL) was 4 and 5 and the “Number of plaques” value ([13]; ribavirin 10.000 μg/mL) was 0.
COc1ccc(-c2cc(=O)c3c(OC)c(OC)c(OC)c(OC)c3o2)cc1 [Tangeretin, tangeretin] showed an IC50 [14] of 9.7 µM, an IC50 [15] of 15.7 µM and an IC50 [16] of 19.8 µM. For the same compound, the CC50 at 7 days [17] was over 100 µM, the IC50 [18] was 15.3 µM and the IC50 [19] was 18.2 µM. For the same compound, the IC50 [20] was 15 µM, the IC50 [21] was 19.4 µM and the IC50 [22] was over 100 µM. The IC50 [23] was 12.3 µM, the IC50 [24] was 14.7 µM and the IC50 [25] was 20.8 µM.

From patent US6555523B1, “Use of cirsiliol and derivatives to treat infections” (priority 1999, dated 2003)
